Target: Cathepsin S (Homo sapiens, UniProt P25774)
Experiment: Cathepsin S inhibition, fluorogenic peptide substrate kinetic assay
Format: biochemical
Conditions: Table II; Cathepsin S inhibition constant, pH5.5; read-out: Ki Cat. S
Method in brief: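 Reactions were started with 50 μM (final) acetyl-His-Pro-Val-Lys-aminocarbamoylcoumarin, and hydrolysis was followed by fluorescence (ex 380/em 450 nm). Apparent inhibition constants from enzyme progress curves were converted to Ki for competitive inhibitors using substrate concentration and Km.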

Sequence of Cathepsin S (P25774 115-331, species assumed): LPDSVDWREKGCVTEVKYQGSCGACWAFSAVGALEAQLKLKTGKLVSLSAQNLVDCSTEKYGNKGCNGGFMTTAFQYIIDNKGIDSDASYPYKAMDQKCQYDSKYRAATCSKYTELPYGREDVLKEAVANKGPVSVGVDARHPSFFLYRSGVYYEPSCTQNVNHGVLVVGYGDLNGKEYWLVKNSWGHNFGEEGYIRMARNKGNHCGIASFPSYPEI

Structure (SMILES) | Ki [µM]
C[C@@H](CNc1ccc(OC(F)F)cc1)NC(=O)[C@H](CC(C)(C)C)NC(=O)c1ccc(-c2cccc(F)c2)o1 [Compound 128, 5-(3-Fluoro-phenyl)-furan-2-carboxylic acid {1-(S)-[2-(4-difluoromethoxy-phenylamino)-1-(S)-methyl-ethylcarbamoyl]-3,3-dimethyl-butyl}-amide] | < 0.1
C[C@@H](CNc1ccc(OC(F)(F)F)cc1)NC(=O)[C@H](CC1CCCCC1)NC(=O)OC1CCS(=O)(=O)CC1 [Compound 186, (S,S)-{2-Cyclohexyl-1-[1-methyl-2-(4-trifluoromethoxy-phenylamino)-ethylcarbamoyl]-ethyl}-carbamic acid 1,1-dioxo-hexahydro-1λ^6-thiopyran-4-yl ester] | < 0.1
COc1cccc(C(=O)N[C@@H](CCC2CCCCC2)C(=O)NCCN2CCc3cc(OC)ccc32)c1 [Compound 16, (S)-N-{3-Cyclohexyl-1-[2-(5-methoxy-2,3-dihydro-indol-1-yl)-ethylcarbamoyl]-propyl}-3-methoxy-benzamide] | < 10
Cc1nc(C)c(S(=O)(=O)N[C@@H](CC2CCCCC2)C(=O)N[C@@H](C)CN2CCc3cc(F)ccc32)s1 [Compound 210, (S,S)-3-Cyclohexyl-2-(2,4-dimethyl-thiazole-5-sulfonylamino)-N-[2-(5-fluoro-2,3-dihydro-indol-1-yl)-1-methyl-ethyl]-propionamide] | < 0.1
CS(=O)(=O)c1cccc(C(=O)N[C@@H](CC2CCCCC2)C(=O)NCCN2CCc3cc(F)ccc32)c1 [Compound 80, N-(S)-{2-cyclohexyl-1-[2-(5-fluoro-2,3-dihydro-indol-1-yl)-ethylcarbarnoyl]-ethyl}-3-methanesulfonyl-benzamide] | < 0.1
COc1ccc(NC[C@H](C)NC(=O)[C@H](CC(C)(C)C)NC(=O)c2ccc(-c3cccc(F)c3)o2)cc1 [Compound 132, 5-(3-Fluoro-phenyl)-furan-2-carboxylic acid {1-(S)-[2-(4-methoxy-phenylamino)-1-(S)-methyl-ethylcarbamoyl]-3,3-dimethyl-butyl}-amide] | < 0.1
COc1cccc(C(=O)N[C@@H](CCC2CCCCC2)C(=O)N[C@@H](CCCCNC(=O)OCc2ccccc2)CN2CCc3cc(F)ccc32)c1 [Compound 55, (S,S)-[5-[4-Cyclohexyl-2-(3-methoxy-benzoylamino)-butyrylamino]-6-(5-fluoro-2,3-dihydro-indol-1-yl)-hexyl]-carbamic acid benzyl ester] | < 1
C[C@@H](CNc1ccc(OC(F)(F)F)cc1)NC(=O)[C@H](CC1CCCCC1)NC(=O)c1cnn(-c2ccc(F)cc2)c1 [Compound 142, 1-(4-Fluoro-phenyl)-1H-pyrazole-4-carboxylic acid {2-cyclohexyl-1-(S)-[1-(S)-methyl-2-(4-trifluoromethoxy-phenylamino)-ethylcarbamoyl]-ethyl}-amide] | < 0.1
CS(=O)(=O)c1ccc(C(=O)N[C@@H](CC2CCCCC2)C(=O)NCCN2CCc3cc(F)ccc32)s1 [Compound 72, 5-Methanesulfonyl-thiophene-2-carboxylic acid (S)-{2-cyclohexyl-1-[2-(5-fluoro-2,3-dihydro-indol-1-yl)-ethylcarbamoyl]-ethyl}-amide] | < 0.1
O=C(N[C@@H](CC1CCCCC1)C(=O)NCCN1CCc2cc(F)ccc21)c1ccco1 [Compound 9, Furan-2-carboxylic acid (S)-{2-cyclohexyl-1-[2-(5-fluoro-2,3-dihydro-indol-1-yl)-ethylcarbamoyl]-ethyl}-amide] | < 0.1
O=C(N[C@@H](CC1CC1)C(=O)NCCN1CCc2cc(F)ccc21)c1ccc(-c2cccc(C(F)(F)F)c2)o1 [Compound 194, N-((S)-1-(2-(5-fluoroindolin-1-yl)ethylcarbamoyl)-2-cyclopropylethyl)-5-(3-(trifluoromethyl)phenyl)furan-2-carboxamide] | < 1
CS(=O)(=O)N1CCC(C(=O)N[C@@H](CC2CCCCC2)C(=O)NCCN2CCc3cc(F)ccc32)CC1 [Compound 77, 1-Methanesulfonyl-piperidine-4-carboxylic acid (S)-{2-cyclohexyl-1-[2-(5-fluoro-2,3-dihydro-indol-1-yl)-ethylcarbamoyl]-ethyl}-amide] | < 1
O=C(NCCN1CCc2cc(F)ccc21)[C@H](CC1CCCCC1)NS(=O)(=O)c1cc2ccccc2s1 [Compound 234, (S)-2-(Benzo[b]thiophene-2-sulfonylamino)-3-cyclohexyl-N-[2-(5-fluoro-2,3-dihydro-indol-1-yl)-ethyl]-propionamide] | < 1
CC(C)(C)C[C@H](NC(=O)c1ccc(-c2cccc(C(F)(F)F)c2)o1)C(=O)NCCN1CCc2cc(F)ccc21 [Compound 202, N-((S)-1-(2-(5-fluoroindolin-1-yl)ethylcarbamoyl)-3,3-dimethylbutyl)-5-(3-(trifluoromethyl)phenyl)furan-2-carboxamide] | < 0.1
COCCC(=O)N[C@@H](CC1CCCCC1)C(=O)N[C@@H](C)CNc1ccc(OC(F)(F)F)cc1 [Compound 123, 3-Cyclohexyl-2-(S)-(3-methoxy-propionylamino)-N-[1-(S)-methyl-2-(4-trifluoromethoxy-phenylamino)-ethyl]-propionamide] | < 0.1
COc1cccc(C(=O)N[C@@H](CC2CCCCC2)C(=O)N[C@@H](COCc2ccccc2)CN2CCc3cc(F)ccc32)c1 [Compound 149, N-{1-(S)-[1-(R)-Benzyloxymethyl-2-(5-fluoro-2,3-dihydro-indol-1-yl)-ethylcarbamoyl]-2-cyclohexyl-ethyl}-3-methoxy-benzamide] | < 0.1
O=C(N[C@H](C(=O)N[C@H](CO)CN1CCc2cc(F)ccc21)c1ccc(Cl)cc1Cl)c1ccc(F)c(F)c1 [Compound 214, (S,S)-N-((3-(5-fluoroindolin-1-yl)-1-hydroxypropan-2-ylcarbamoyl)(2,4-dichlorophenyl)methyl)-3,4-difluorobenzamide] | < 1
CC(C(=O)N[C@@H](CC1CCCCC1)C(=O)NCCN1CCc2cc(F)ccc21)c1ccc(-c2ccccc2)c(F)c1 (stereo partly drawn) [Compound 59, N-{2-cyclohexyl-1-(S)-[2-(5-fluoro-2,3-dihydro-indol-1-yl)-ethylcarbamoyl]-ethyl}-2-(2-fluoro-biphenyl-4-yl)-propionamide] | < 0.1
C[C@@H](CN1c2ccc(F)cc2CC1(C)C)NC(=O)[C@H](CC1CCCCC1)NC(=O)[C@H]1CCCO1 [Compound 274, Tetrahydrofuran-2-(R)-carboxylic acid {2-cyclohexyl-1-(S)-[2-(5-fluoro-2,2-dimethyl-2,3-dihydro-indol-1-yl)-1-(S)-methyl-ethylcarbamoyl]-ethyl}-amide] | < 1
COc1ccc(CC(=O)N[C@@H](CC2CCCCC2)C(=O)NCCN2CCc3cc(F)ccc32)cc1 [Compound 6, (S)-3-Cyclohexyl-N-[2-(5-fluoro-2,3-dihydro-indol-1-yl)-ethyl]-2-[2-(4-methoxy-phenyl)-acetylamino]-propionamide] | < 1
C[C@@H](CNc1ccc(OC(F)(F)F)cc1)NC(=O)[C@H](CC1CCCCC1)NC(=O)O[C@@H]1CCNC1 [Compound 187, {2-Cyclohexyl-1-(S)-[1-(S)-methyl-2-(4-trifluoromethoxy-phenylamino)-ethylcarbamoyl]-ethyl}-carbamic acid pyrrolidin-3-(R)-yl ester] | < 10
COc1cc(COC[C@@H](CN2CCc3cc(F)ccc32)NC(=O)[C@H](CCC2CCCCC2)NC(=O)c2cccc(OC)c2)cc(OC)c1 [Compound 170, N-{3-Cyclohexyl-1-(S)-[2-(3,5-dimethoxy-benzyloxy)-1-(R)-(5-fluoro-2,3-dihydro-indol-1-ylmethyl)-ethylcarbamoyl]-propyl}-3-methoxy-benzamide] | < 0.1
Cc1cccc(S(=O)(=O)N[C@@H](CC2CCCCC2)C(=O)NCCN2CCc3cc(F)ccc32)c1 [Compound 243, (S)-3-Cyclohexyl-N-[2-(5-fluoro-2,3-dihydro-indol-1-yl)-ethyl]-2-(toluene-3-sulfonylamino)-propionamide] | < 0.1
C[C@@H](CNc1ccc(S(C)(=O)=O)cc1)NC(=O)[C@H](CC1CCCCC1)NC(=O)c1ccc(-c2ccc(F)cc2)o1 [Compound 107, 5-(4-Fluoro-phenyl)-furan-2-carboxylic acid {2-cyclohexyl-1-(S)-[2-(4-methanesulfonyl-phenylamino)-1-(S)-methyl-ethylcarbamoyl]-ethyl}-amide] | < 0.1
C[C@@H](CNc1ccc(O)cc1)NC(=O)[C@H](CC1CCCCC1)NC(=O)c1ccc(-c2cccc(F)c2)o1 [Compound 125, 5-(3-Fluoro-phenyl)-fuiran-2-carboxylic acid {2-cyclohexyl-1-(S)-[2-(4-hydroxy-phenylamino)-1-(S)-methyl-ethylcarbamoyl]-ethyl}-amide] | < 0.1
C[C@@H](CN1c2ccc(F)cc2CC1(C)C)NC(=O)[C@H](CC1CCCCC1)NC(=O)C1CCOC1 (stereo partly drawn) [Compound 140, Tetrahydrofuran-3-carboxylic acid {2-cyclohexyl-1-(S)-[2-(5-fluoro-2,2-dimethyl-2,3-dihydro-indol-1-yl)-1-(S)-methyl-ethylcarbamoyl]-ethyl}-amide] | < 0.1
C[C@@H](CNc1cccc(Cl)c1F)NC(=O)[C@H](CC1CCCCC1)NC(=O)c1ccc(-c2cccc(F)c2)o1 [Compound 96, 5-(3-Fluoro-phenyl)-furan-2-carboxylic acid {1-(S)-[2-(3-chloro-2-fluoro-phenylamino)-1-(S)-methyl-ethylcarbamoyl]-2-cyclohexyl-ethyl}-amide] | < 1
C[C@@H](CNc1cccc(-c2nnn[nH]2)c1)NC(=O)[C@H](CC1CCCCC1)NC(=O)OCc1ccccc1 [Compound 180, (2-Cyclohexyl-1-(S)-{1-(S)-methyl-2-[3-(1H-tetrazol-5-yl)-phenylamino]-ethylcarbamoyl}-ethyl)-carbamic acid benzyl ester] | < 1
C[C@@H](CNc1ccc(OC(F)(F)F)cc1)NC(=O)[C@H](CC1CCCCC1)NC(=O)O[C@@H]1CCOC1 [Compound 188, {2-Cyclohexyl-1-(S)-[1-(S)-methyl-2-(4-trifluoromethoxy-phenylamino)-ethylcarbamoyl]-ethyl}-carbamic acid tetrahydrofuran-3-(R)-yl ester] | < 0.1
